Experimental data published in patent publication US10125097B2, “1- [1-(benzoyl)-pyrrolidine-2-carbonyl]-pyrrolidine-2-carbonitrile derivatives” (UNIVERSITAT DE BARCELONA, priority 2012, dated 2018).
Where two headings read alike, the source gives them in different places.

Experiments:
[1] = target: human prolyl oligopeptidase (Homo sapiens (Human), UniProt P48147); assay: POP inhibition assay (Z-G-P-AMC substrate, fluorimetric); format: biochemical
Method: Expression and Purification of Prolyl Oligopeptidase (POP)
POP was obtained by expression in E. coli and affinity purification using a His tail fusion according to a literature procedure (Tarragó T et al., ChemBioChem 2006; 7:827-33) summarized below:
hPOP expression: E. coli BL21 competent cells were transformed with pETM10 hPOP. To induce expression, a pre-culture of LB medium (50 mL) containing kanamycin (50 μg/mL) was inoculated with one colony and was grown overnight at 37° C. Next day, two cultures of LB medium (500 mL) were inoculated with the overnight culture (10 mL). The inoculated cultures were grown at 37° C. and 220 rpm until the OD595 was 1.2 (2.5-3 hours). IPTG was then added (final concentration of 1 mM) and induction was performed overnight at 25° C. Cells were harvested (3500 g, 15 min, 4° C.) and the pellet was suspended in suspension buffer (50 mL) [Tris-HCl pH 8 (50 mM), NaCl (300 mM), imidazole (1 mM)] and sonicated with use of four cycles (each consisting of 15 sec of sonication and 15 sec of rest) at an intensity of 50% and 0.5 pulses, the sample being kept on ice. After sonication, the sample was centrifuged (40 000 g, 30 min, 4° C.) and the supernatant was used immediately for POP purification. An ÁKTA explorer FPLC system was used for purification. The supernatant was applied at a flow of 1 mL/min to a HiTrapQuelating column (5 mL) previously equilibrated with 5 column volumes of suspension buffer. The column was washed with suspension buffer until the absorbance at 280 nm returned to basal level. The column was then rinsed with 5 volumes of washing buffer (50 mM Tris-HCl, pH 8, 300 mM NaCl, 30 mM imidazole). The elution was performed with 4 volumes of elution buffer (50 mM Tris-HCl, pH 8, 300 mM NaCl, 500 mM imidazole). Fractions (4 mL) were collected during the entire elution. POP activity was checked in all fractions and positive ones were analyzed by SDS-PAGE and stained with Biosafe Comassie Stain G-250. Positive fractions were collected and desalted by use of a HiPrep 26/10 Desalting column with Tris-HCl (50 mM, pH 8) as buffer. Recombinant hPOP was quantified with the Bio-Rad Protein Assay with BSA as standard. Aliquots of the recombinant enzyme were prepared and immediately frozen with liquid nitrogen and stored at −80° C.
POP activity was determined following the method described by Toide et al (Toide K et al., J. Pharmacol. Exp. Ther. 1995; 274:1370-8), using Z-G-P-AMC (N-benzyloxycarbonyl-Gly-Pro-methylcoumarinyl-7-amide) as POP substrate. The reactions were performed in 96-well microtiter plates, which allowed simultaneous monitoring of multiple reactions. For each reaction, activity buffer (134 μl, 100 mM Na/K phosphate buffer, pH 8.0) was pre-incubated for 15 min at 37° C. with hPOP (ranging from 20 to 60 nM, depending on the activity of the hPOP batch) and the corresponding new compound solution (3 μl). A stock solution of new compound was prepared in DMSO (100 mM), and dilutions were prepared from this stock solution with DMSO. Alternatively, the reactions were performed using another activity buffer (141 μL, 100 mM Tris-acetate, […], 1 mM DTT, pH 7.3), pre-incubating with hPOP (10 nM) and the corresponding new compound solution (3 μl) (Conditions B).
After preincubation, Z-G-P-AMC (10 μl, 3 mM in 40% 1,4-dioxane) was added (3 μl, 1.5 mM in 40% of 1,4-dioxane, in Conditions B), and the reaction was incubated for 1 hour at 37° C. The reaction was stopped by adding sodium acetate (150 μl, 1 M, pH 4) and the formation of AMC was measured fluorimetrically. The excitation and emission wavelengths were 360/40 and 485/20 nm, respectively.
Several concentration points (ranging from 25 μM to 400 μM) were measured for each compound. The inhibitory activity on prolyl oligopeptidase was calculated according to eq 1. For each new compound, the fluorescence in the presence (a) and in the absence of hPOP (b) was measured. […]

[2] = Parallel artificial membrane permeability assay (PAMPA); format: in vitro ADME; details: 200 μM initial concentration, pH 7.4, 4 hours, room temperature; for Papp at 4 h, 200 μM: PAMPA, read-out: Effective permeability Pe
Method: Parallel artificial membrane permeability assay (PAMPA) described in Kansy M et al., J. Med. Chem. 1998; 41(7):1007-10 was used to determine the capacity of compounds to cross the Blood-Brain Barrier (BBB) by passive diffusion (Di L et al., Eur. J. Med. Chem. 2003; 38(3):223-32). The effective permeability (Pe) of the compounds was measured at an initial concentration of 200 μM. The buffer solution was prepared from a commercial concentrated one following the manufacturer's instructions. pH was adjusted to 7.4 using a 0.5 M NaOH solution. A stock solution of new compound was prepared in DMSO and diluted with buffer solution to a final 200 μM concentration (0.5% DMSO content). The PAMPA sandwich was separated and each donor well was filled with 200 μL of the compound solution. The acceptor plate was placed into the donor plate, ensuring that the underside of the membrane was in contact with buffer. 4 μL of the mixture of phospholipids (20 mg/mL) in dodecane was added to the filter of each well, and 200 μL of buffer solution was added to the each acceptor well. The plate was covered and incubated at room temperature in a saturated humidity atmosphere for 4 hours under orbital agitation at 100 rpm. After 4 hours, the contents of the acceptor and donor compartments were analyzed by HPLC: 150 μL of each well from the donor plate and 150 μL of each well from the acceptor plate were transferred to HPLC vials, injecting each sample into a reverse-phase C18 column (150 mm×4.6 mm×5 μm, 100 Å) (100 μL/injection from the acceptor wells, 10 μL/injection from the donor wells and for t0 references). Transport was also confirmed by MALDI-TOF spectrometry.
The phospholipid mixture used was a porcine polar brain lipid extract, provided by Avanti polar lipids, with the following composition: 12.6% phosphatidylcholine (PC), 33.1% phosphatidylethanolamine (PE), 18.5% phosphatidylserine (PS), 4.1% phosphatidylinositol (PI), 0.8% phosphatidic acid and 30.9% of other compounds.
The effective permeability (Pe) after 4 hours was calculated using equation 2 and the percentage of transport was calculated using equation 3:
[formula] wherein: t is time (h) CA(t) is the compound concentration in the acceptor well at time t and CD(to) is the compound concentration in the donor well at to.

[3] = Conditions B: 100 mM Tris-acetate, 10 mM BSA, 1 mM DTT, pH 7.3, hPOP 10 nM, read-out: IC50, inhibition of human prolyl oligopeptidase, measured in conditions B
[4] = 100 mM Na/K phosphate buffer, pH 8.0, hPOP 20 to 60 nM, Z-G-P-AMC, 1 hour at 37° C., read-out: IC50, inhibition of human prolyl oligopeptidase

human prolyl oligopeptidase, sequence (P48147 whole entry): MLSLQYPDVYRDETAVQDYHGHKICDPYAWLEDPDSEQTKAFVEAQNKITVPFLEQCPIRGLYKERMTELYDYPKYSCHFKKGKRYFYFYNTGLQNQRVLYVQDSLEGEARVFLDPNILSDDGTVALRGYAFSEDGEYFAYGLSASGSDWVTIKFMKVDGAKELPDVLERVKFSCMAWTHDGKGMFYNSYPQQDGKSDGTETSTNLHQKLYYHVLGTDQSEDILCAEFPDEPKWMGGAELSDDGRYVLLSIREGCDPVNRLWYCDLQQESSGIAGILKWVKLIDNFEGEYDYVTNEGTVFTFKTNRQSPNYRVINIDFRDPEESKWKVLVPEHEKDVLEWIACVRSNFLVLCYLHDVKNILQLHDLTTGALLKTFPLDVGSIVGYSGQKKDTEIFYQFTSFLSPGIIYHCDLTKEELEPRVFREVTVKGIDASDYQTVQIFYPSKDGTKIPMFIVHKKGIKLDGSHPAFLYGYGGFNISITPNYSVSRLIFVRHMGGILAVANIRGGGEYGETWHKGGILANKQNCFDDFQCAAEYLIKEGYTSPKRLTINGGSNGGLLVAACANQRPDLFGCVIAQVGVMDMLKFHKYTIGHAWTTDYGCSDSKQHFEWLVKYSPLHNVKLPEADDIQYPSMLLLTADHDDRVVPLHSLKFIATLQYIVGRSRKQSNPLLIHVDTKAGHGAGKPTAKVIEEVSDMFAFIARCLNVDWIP

Row | SMILES | IC50 [1, 3] | % T (percentage of transport) [2] | Papp at 4 h, 200 μM [2] | IC50 [1, 4]
1 | COc1cc(C(=O)N2C[C@H](c3ccccc3)C[C@H]2C(=O)N2CCC[C@H]2C#N)cc(OC)c1OCc1ccccc1 [Example 3, (S)-1-((2S,4S)-1-(4-(benzyloxy)-3,5-dimethoxybenzoyl)-4-phenylpyrrolidine-2-carbonyl)pyrrolidine-2-carbonitrile] |  | 5.72% | 2.89 ×10⁻⁶ cm/s | 339 nM
2 | COc1cc(C(=O)N2C[C@H](OC)C[C@H]2C(=O)N2CCC[C@H]2C#N)cc(OC)c1OCc1ccccc1 [Example 1, (S)-1-((2S,4R)-1-(4-(benzyloxy)-3,5-dimethoxybenzoyl)-4-methoxypyrrolidine-2-carbonyl)pyrrolidine-2-carbonitrile] |  | 4.3% | 1 ×10⁻⁶ cm/s | 63.8 nM
3 | COc1cc(C(=O)N2CC(F)(F)C[C@H]2C(=O)N2CCC[C@H]2C#N)cc(OC)c1OC(C)=O [Example 11, (S)-1-((2S)-1-(4-acetoxy-3,5-dimethoxybenzoyl)-4,4-difluoropyrrolidine-2-carbonyl)pyrrolidine-2-carbonitrile] |  |  |  | 352 nM
4 | COc1cc(C(=O)N2C[C@H](OC(C)(C)C)C[C@H]2C(=O)N2CCC[C@H]2C#N)cc(OC)c1OCc1ccccc1 [Example 9, (S)-1-((2S,4R)-1-(4-(benzyloxy)-3,5-dimethoxybenzoyl)-4-(tert-butoxy)pyrrolidine-2-carbonyl)pyrrolidine-2-carbonitrile] |  |  |  | 668 nM
5 | COc1cc(C(=O)N2CC(F)(F)C[C@H]2C(=O)N2CCC[C@H]2C#N)cc(OC)c1OC(=O)c1ccccc1 [Example 12, (S)-1-((2S)-1-(4-benzoyloxy-3,5-dimethoxybenzoyl)-4,4-difluoropyrrolidine-2-carbonyl)pyrrolidine-2-carbonitrile] |  | 8.47% | 2.1 ×10⁻⁶ cm/s | 111 nM
6 | COc1cc(C(=O)N2C[C@@H](SC)C[C@H]2C(=O)N2CCC[C@H]2C#N)cc(OC)c1OCc1ccccc1 [Example 5, (S)-1-((2S,4S)-1-(4-(benzyloxy)-3,5-dimethoxybenzoyl)-4-(methythio)pyrrolidine-2-carbonyl)pyrrolidine-2-carbonitrile] |  | 17.03% | 9.98 ×10⁻⁶ cm/s | 176 nM
7 | COc1cc(C(=O)N2C[C@@H](C)C[C@H]2C(=O)N2CCC[C@H]2C#N)cc(OC)c1OCc1ccccc1 [Example 6, (S)-1-((2S,4S)-1-(4-(benzyloxy)-3,5-dimethoxybenzoyl)-4-methylpyrrolidine-2-carbonyl)pyrrolidine-2-carbonitrile] | 13.1 nM | 14.76% | 3.79 ×10⁻⁶ cm/s | 
8 | COc1cc(C(=O)N2C[C@H](F)C[C@H]2C(=O)N2CCC[C@H]2C#N)cc(OC)c1OCc1ccccc1 [Example 2, (S)-1-((2S,4R)-1-(4-(benzyloxy)-3,5-dimethoxybenzoyl)-4-fluoropyrrolidine-2-carbonyl)pyrrolidine-2-carbonitrile] |  | 13.03% | 7.28 ×10⁻⁶ cm/s | 60.4 nM
9 | COc1cc(C(=O)N2CC(F)(F)C[C@H]2C(=O)N2CCC[C@H]2C#N)cc(OC(C)=O)c1OC [Example 15, (S)-1-((2S)-1-(3-acetoxy-4,5-dimethoxybenzoyl)-4,4-difluoropyrrolidine-2-carbonyl)pyrrolidine-2-carbonitrile] |  |  |  | 5600 nM

More lines, now with the values ahead:

Row | IC50 [1, 3] | % T (percentage of transport) [2] | Papp at 4 h, 200 μM [2] | IC50 [1, 4] | SMILES
10 | 487 nM | 11.91% | 6.51 ×10⁻⁶ cm/s |  | N#C[C@@H]1CCCN1C(=O)[C@@H]1CC(F)(F)CN1C(=O)c1cccc(OCc2ccccc2)c1 [Example 18, (S)-1-((S)-1-(3-(benzyloxy)benzoyl)-4,4-difluoropyrrolidine-2-carbonyl)pyrrolidine-2-carbonitrile]
11 |  |  |  | 336 nM | COc1cc(C(=O)N2CC(F)(F)C[C@H]2C(=O)N2CCC[C@H]2C#N)cc(OCc2ccccc2)c1OCc1ccccc1 [Example 13, (S)-1-((2S)-1-(3,4-dibenzyloxy-5-methoxybenzoyl)-4,4-difluoropyrrolidine-2-carbonyl)pyrrolidine-2-carbonitrile]
12 | 5 nM | 10.43% | 5.57 ×10⁻⁶ cm/s |  | N#C[C@@H]1CCCN1C(=O)[C@@H]1CC(F)(F)CN1C(=O)c1ccc(OCc2ccccc2)c(F)c1 [Example 21, (S)-1-((S)-1-(4-(benzyloxy)-3-fluorobenzoyl)-4,4-difluoropyrrolidine-2-carbonyl)pyrrolidine-2-carbonitrile]
13 | 4.5 nM | 2.64% | 1.29 ×10⁻⁶ cm/s |  | N#C[C@@H]1CCCN1C(=O)[C@@H]1CC(F)(F)CN1C(=O)c1ccc(OCc2ccccc2)c(C(F)(F)F)c1 [Example 20, (S)-1-((S)-1-(4-(benzyloxy)-3-(trifluoromethyl)benzoyl)-4,4-difluoropyrrolidine-2-carbonyl)pyrrolidine-2-carbonitrile]
14 | 255 nM | 17.55% | 10.3 ×10⁻⁶ cm/s |  | N#C[C@@H]1CCCN1C(=O)[C@@H]1CC(F)(F)CN1C(=O)c1ccccc1OCc1ccccc1 [Example 19, (S)-1-((S)-1-(2-(benzyloxy)benzoyl)-4,4-difluoropyrrolidine-2-carbonyl)pyrrolidine-2-carbonitrile]
15 |  | 19.08% | 5.02 ×10⁻⁶ cm/s | 2140 nM | COc1cc(C(=O)N2CC(F)(F)C[C@H]2C(=O)N2CCC[C@H]2C#N)cc(OC(=O)C(C)(C)C)c1OC [Example 16, (S)-1-((2S)-1-(3-pivaloyloxy-4,5-dimethoxybenzoyl)-4,4-difluoropyrrolidine-2-carbonyl)pyrrolidine-2-carbonitrile]
